In one test the target is T1, FLT3 (Homo sapiens, UniProt P36888).
T1 construct: purchased Invitrogen PV3182
T1 sequence (P36888 27-993): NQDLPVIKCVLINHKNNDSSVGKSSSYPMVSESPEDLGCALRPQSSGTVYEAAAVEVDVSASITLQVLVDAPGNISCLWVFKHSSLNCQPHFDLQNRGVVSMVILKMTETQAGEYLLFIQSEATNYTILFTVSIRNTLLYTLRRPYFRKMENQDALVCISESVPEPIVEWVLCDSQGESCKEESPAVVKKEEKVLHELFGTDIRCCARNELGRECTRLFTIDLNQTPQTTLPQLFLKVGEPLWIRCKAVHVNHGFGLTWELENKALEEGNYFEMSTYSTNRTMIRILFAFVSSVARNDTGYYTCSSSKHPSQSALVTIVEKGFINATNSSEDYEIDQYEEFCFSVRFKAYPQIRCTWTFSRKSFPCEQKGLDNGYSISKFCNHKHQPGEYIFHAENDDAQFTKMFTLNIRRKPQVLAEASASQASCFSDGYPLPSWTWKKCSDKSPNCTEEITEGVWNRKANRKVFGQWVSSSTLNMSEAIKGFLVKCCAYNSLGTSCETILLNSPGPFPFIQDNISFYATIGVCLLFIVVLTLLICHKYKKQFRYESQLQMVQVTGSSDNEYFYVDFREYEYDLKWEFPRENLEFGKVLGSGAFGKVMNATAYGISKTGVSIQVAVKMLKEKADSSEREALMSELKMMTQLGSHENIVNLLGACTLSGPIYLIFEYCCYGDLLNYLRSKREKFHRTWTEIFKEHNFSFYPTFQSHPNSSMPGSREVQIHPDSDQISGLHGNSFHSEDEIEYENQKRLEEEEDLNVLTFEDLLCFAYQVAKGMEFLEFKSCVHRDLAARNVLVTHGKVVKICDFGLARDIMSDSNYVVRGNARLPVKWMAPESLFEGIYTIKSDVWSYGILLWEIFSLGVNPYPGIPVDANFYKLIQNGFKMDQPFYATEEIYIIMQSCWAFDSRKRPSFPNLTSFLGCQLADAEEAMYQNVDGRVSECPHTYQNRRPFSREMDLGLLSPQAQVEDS
Description: FLT3 inhibition, FRET based Z'-LYTE Kinase Assay. The following applies: 1 nM FLT3, 940 μM ATP; read-out: IC50 Range Flt3. The format is biochemical. Here is the method:
FLT3 and LCK compound inhibition were determined using FRET based Z′-LYTE Kinase Assay Kit with Tyrosine 2 peptide as the substrate (Invitrogen cat #PV3191). […] The % inhibition values were determined according to the manufacturer's directions and IC50 values were obtained using a non-linear 4 point logistic curve fit (XLfit4, IDBS).

The test system of test [1] is ERK1/2 T202/Y204 phosphorylation in α-CD3 stimulated Jurkat E6.1 cells. The test can be described thus: In vitro phosphorylation assay, ERK1/2 T202/Y204 (immunoblot). The format is cell-based. The following applies: Homo sapiens, 4 h pretreatment, read-out: ERK1/2 T202/Y204 Phosphorylation Onset Inhibition. Here is the method:
Jurkat E6.1 cells were obtained from American Type Culture Collection (ATCC, Manassas, Va.), and maintained according to the supplier's instructions. Cells were washed three times and starved in RPMI 1640 medium supplemented with 0.5% fetal calf serum for 18 h at 37° C. Serum starved cells were pretreated with the indicated concentration of inhibitor for 4 hours before stimulation with 10 μg/ml α-CD3 antibody (BioLegend, Inc., San Diego, Calif.) for 10 min at 37° C. The cells were washed once in phosphate-buffered saline (pH 7.4) containing 10 mm sodium pyrophosphate, 10 mm sodium fluoride, 10 mm EDTA, and 1 mm sodium orthovanadate. Protein lysates were prepared using ice-cold radioimmunoprecipitation assay (RIPA) lysis buffer. A total of 100 μg of cell lysate was loaded onto Bis-Tris gels (Life Technologies, Carlsbad, Calif.) with full-range molecular weight marker as a size reference, and resolved by SDS-PAGE electrophoresis. Proteins were transferred to PVDF membrane (Millipore, Billerica, Mass.), blocked and probed with antibodies for phospho-SLP-76 (Ser376) (rabbit polyclonal #13177; Cell Signaling Technology Inc., Danvers, Mass.), SLP-76 (rabbit polyclonal #4958; Cell Signaling Technology Inc., Danvers, Mass.), phospho-ERK (mouse monoclonal sc-7383; Santa Cruz Biotechnology Inc., Santa Cruz, Calif.) and ERK1/2 (rabbit polyclonal 06-182; Millipore, Billerica, Mass.). Secondary antibodies were diluted 1 in 15,000 and incubated for 1 h at rt. Protein bands were visualized and quantified using Odyssey near infrared imager (LI-COR, Lincoln, Nebr.).
Table 2 below lists effects of representative compounds of the present invention against SLP-76 serine 376 phosphorylation and ERK1/2 T202/Y204 phosphorylation in α-CD3 stimulated Jurkat E6.1 cells.

Where only a bound is given, the exact number is not on record here.

Regarding `CN1CCN(c2ccc3nc(-c4c(N)c5ccsc5[nH]c4=O)[nH]c3c2)CC1` [Example A1, 4-amino-5-(6-(4-methylpiperazin-1-yl)-1H-benzo[d]imidazol-2-yl)thieno[2,3-b]pyridin-6(7H)-one], the 50% inhibitory concentration (IC50) on FLT3 was at most 50 nM. In addition, in test [1], the minimal effective concentration was over 3 µM.

Values taken from patent US11059832B2, “HPK1 inhibitors and methods of using same” (University Health Network, priority 2015, dated 2021).
